Here are results for four compounds from patent US12065436B2, “Cardiac sarcomere inhibitors” (Cytokinetics, Inc., priority 2018, dated 2024).

In experiment [1] the target is bovine cardiac myofibrils (full-length cardiac myosin ATPase in the native sarcomere) (Bos taurus (Bovine), UniProt Q9BE39). Put plainly: Skinned bovine cardiac myofibril ATPase assay (PK/LDH-coupled). It counts as biochemical. The settings on record: Ca2+ activating to 75% of maximal rate; for CDMF75 IC15: concentration giving 15% inhibition; for IC50: read-out: CDMF75 IC50. An outline of the steps: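 Inhibition of steady-state ATPase read at 340 nm through a PK/LDH-coupled NADH system (0.5 mM NADH, 1.5 mM PEP). Detergent-skinned bovine cardiac myofibrils, 1 mg/mL, were tested at pH 6.8 in PIPES/MgCl2 with 50 μM ATP and calcium adjusted to give pCa50 or pCa75 activation.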

Experiment [2] deals with rat cardiac contractility (left ventricle fractional shortening). Description: Echocardiography of acute effect on rat cardiac contractility, continuous IV infusion. Type of experiment: in vivo, Sprague Dawley rats. The settings on record: Rattus norvegicus, plasma concentration at which fractional shortening is 50% of pre-dose baseline, estimated, read-out: IC50 (Mean ± S.D.). As for the experimental part:
(§1) Assessment of in vivo cardiac function by echocardiography was performed in male Sprague Dawley rats under isoflurane (1-3%) anesthesia. 2-D M-mode images of the left ventricle were acquired in the parasternal long-axis view before, during, and after administration of compounds by continuous IV infusion or oral gavage. In vivo fractional shortening was determined by M-mode image analysis with the following calculation: ((End diastolic diameter−end systolic diameter)/end diastolic diameter×100). For continuous IV infusion experiments, three pre-dose baseline M-mode images were taken at 1 minute intervals prior to infusion of compound. Compounds were formulated in 50% Propylene Glycol (PG): 16% Captisol: 10% dimethylacetamide (DMA) and delivered via a jugular vein catheter at the rate of 1 mL/kg/h. During infusion, M-mode images were taken at 5 minute intervals. The infusion stopped when fractional shortening reached up to a 60% reduction from baseline. Blood samples were taken to determine the plasma concentration of the compounds. Data was reported as an estimated IC50 value, which is the concentration at which fractional shortening is 50% of the pre-dose baseline contractility.

Experiment [3] shares this test system. Put plainly: Echocardiography of acute effect on rat cardiac contractility, oral gavage. It counts as in vivo, Sprague Dawley rats. The settings on record: for inhibition in vivo at 2 mg/kg / IC50 / inhibition in vivo at 6 mg/kg: Rattus norvegicus; for inhibition in vivo at 2 mg/kg / inhibition in vivo at 6 mg/kg: oral gavage; for IC50 / IC10: oral dosing, estimated; for IC50: plasma concentration at which fractional shortening is 50% of pre-dose baseline; for IC10: plasma concentration at which. As for the experimental part:
as §1
For oral dosing studies, three pre-dose baseline M-Mode images were taken at 1 minute intervals prior to compound administration. Compounds were formulated in a 0.5% hydroxypropyl methylcellulose 2910 (HPMC 2910): 0.1% Tween 80 suspension and delivered as a single dose (5 mL/kg) by oral gavage. Rats were lightly anesthetized for M-Mode echocardiography measurements at select time points over a 24 hour period. Different dose levels were evaluated for each compound. The compound effect on cardiac fractional shortening at the highest dose evaluated is presented in Table D as a percent reduction of baseline fractional shortening (=100%).
Concurrent with echocardiography measurements, blood samples were taken to determine the corresponding compound plasma concentration.

[4] abbreviates: 1 h, 1-2 h post dose, read-out: FS (% reduction from baseline) at 1-2 h post dose (Mean ± S.D.).
[5] abbreviates: 4 h post dose, read-out: FS (% reduction from baseline) at 4 h post dose (Mean ± S.D.).

Like-named read-outs stand apart in the source and are kept apart here.

bovine cardiac myofibrils (full-length cardiac myosin ATPase in the native sarcomere), sequence (Q9BE39 whole entry): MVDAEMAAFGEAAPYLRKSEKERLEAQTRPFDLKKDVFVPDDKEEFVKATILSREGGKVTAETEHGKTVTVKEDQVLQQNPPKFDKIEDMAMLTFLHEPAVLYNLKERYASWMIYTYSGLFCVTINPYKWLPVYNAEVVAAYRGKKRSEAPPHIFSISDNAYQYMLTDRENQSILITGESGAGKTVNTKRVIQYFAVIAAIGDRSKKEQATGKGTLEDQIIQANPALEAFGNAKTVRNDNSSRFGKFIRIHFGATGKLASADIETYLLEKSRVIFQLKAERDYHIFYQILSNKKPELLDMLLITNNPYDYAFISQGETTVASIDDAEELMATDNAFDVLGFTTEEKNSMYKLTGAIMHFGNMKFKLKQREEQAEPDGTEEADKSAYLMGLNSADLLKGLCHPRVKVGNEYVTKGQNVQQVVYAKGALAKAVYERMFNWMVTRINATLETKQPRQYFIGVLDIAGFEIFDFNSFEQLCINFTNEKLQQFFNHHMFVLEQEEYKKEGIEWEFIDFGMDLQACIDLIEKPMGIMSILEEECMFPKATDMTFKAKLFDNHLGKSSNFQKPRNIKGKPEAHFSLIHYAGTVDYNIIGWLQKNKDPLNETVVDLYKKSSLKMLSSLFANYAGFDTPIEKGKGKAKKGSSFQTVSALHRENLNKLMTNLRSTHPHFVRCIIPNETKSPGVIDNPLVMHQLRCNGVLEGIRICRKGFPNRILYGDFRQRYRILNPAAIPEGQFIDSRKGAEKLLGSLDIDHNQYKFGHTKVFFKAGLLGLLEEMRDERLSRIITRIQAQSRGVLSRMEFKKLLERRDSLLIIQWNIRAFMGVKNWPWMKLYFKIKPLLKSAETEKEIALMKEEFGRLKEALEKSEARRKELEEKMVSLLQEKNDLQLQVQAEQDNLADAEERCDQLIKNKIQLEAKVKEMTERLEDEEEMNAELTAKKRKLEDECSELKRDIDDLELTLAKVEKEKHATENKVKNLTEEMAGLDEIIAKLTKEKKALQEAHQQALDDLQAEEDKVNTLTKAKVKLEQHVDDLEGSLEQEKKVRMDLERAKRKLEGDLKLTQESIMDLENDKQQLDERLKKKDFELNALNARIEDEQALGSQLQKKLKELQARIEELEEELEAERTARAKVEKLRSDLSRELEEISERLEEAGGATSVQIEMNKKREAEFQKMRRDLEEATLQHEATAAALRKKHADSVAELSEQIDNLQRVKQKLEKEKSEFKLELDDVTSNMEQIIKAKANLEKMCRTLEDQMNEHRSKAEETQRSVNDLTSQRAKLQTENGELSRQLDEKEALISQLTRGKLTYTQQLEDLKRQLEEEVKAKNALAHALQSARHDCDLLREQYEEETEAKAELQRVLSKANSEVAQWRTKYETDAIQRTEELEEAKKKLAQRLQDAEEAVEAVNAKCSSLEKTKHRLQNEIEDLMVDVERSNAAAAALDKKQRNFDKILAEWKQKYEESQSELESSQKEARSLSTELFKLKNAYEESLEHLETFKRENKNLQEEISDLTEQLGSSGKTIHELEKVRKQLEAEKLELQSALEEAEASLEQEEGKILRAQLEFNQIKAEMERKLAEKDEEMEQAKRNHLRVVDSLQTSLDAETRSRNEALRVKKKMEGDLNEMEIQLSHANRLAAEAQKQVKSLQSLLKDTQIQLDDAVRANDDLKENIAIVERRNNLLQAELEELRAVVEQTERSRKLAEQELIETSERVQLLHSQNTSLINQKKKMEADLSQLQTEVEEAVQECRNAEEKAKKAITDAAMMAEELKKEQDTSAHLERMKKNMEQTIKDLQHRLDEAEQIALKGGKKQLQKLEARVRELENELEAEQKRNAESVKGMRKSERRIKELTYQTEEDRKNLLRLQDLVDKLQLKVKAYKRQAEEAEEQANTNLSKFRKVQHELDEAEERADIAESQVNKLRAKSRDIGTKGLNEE
bovine cardiac myofibrils (full-length cardiac myosin ATPase in the native sarcomere), sequence (P85100 whole entry partner): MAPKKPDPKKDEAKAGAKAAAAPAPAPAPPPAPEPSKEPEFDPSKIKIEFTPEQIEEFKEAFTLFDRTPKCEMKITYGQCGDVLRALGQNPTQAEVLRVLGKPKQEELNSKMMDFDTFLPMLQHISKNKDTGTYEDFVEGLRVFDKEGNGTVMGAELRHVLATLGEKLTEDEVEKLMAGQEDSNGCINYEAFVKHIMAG
bovine cardiac myofibrils (full-length cardiac myosin ATPase in the native sarcomere), sequence (Q3SZE5 whole entry partner): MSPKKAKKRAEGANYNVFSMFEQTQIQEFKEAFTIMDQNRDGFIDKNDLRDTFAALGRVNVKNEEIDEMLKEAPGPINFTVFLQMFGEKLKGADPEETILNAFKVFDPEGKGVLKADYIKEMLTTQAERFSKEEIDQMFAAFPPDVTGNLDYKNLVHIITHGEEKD

As a reminder, the IC50 is the point on the concentration scale where inhibition reaches its midpoint. The term IC10 denotes the concentration at which the effect reaches the 10% level. With `CCc1nc(-c2ccc3c(c2)OC[C@H]3NC(=O)c2cnn(C)c2)no1` [Compound 238, (S)—N-(6-(5-ethyl-1,2,4-oxadiazol-3-yl)-2,3-dihydrobenzofuran-3-yl)-1-methyl-1H-pyrazole-4-carboxamide], the “CDMF75 IC15” value in experiment [1] was determined as 300 nM. Further, the IC50 is 1000 nM in experiment [1], 5700 ± 310 nM in experiment [2] and 4900 nM in experiment [3]. In addition, the figures for the inhibition in vivo at 2 mg/kg in experiment [3] (setting [4]) and in experiment [3] (setting [5]) were 52 ± 10% and 59 ± 6%, respectively. Besides, in experiment [3], the IC10 was 900 nM.
As to `CCc1nc(-c2ccc3c(c2)CC[C@H]3NC(=O)c2nnn(C)n2)no1` [Compound 183, (R)—N-(5-(5-ethyl-1,2,4-oxadiazol-3-yl)-2,3-dihydro-1H-inden-1-yl)-2-methyl-2H-tetrazole-5-carboxamide], in experiment [1], the “CDMF75 IC15” value is 300 nM. Moreover, the IC50 in experiment [1] was 900 nM; in experiment [2], 1200 ± 20 nM; in experiment [3] it was 900 nM. Further, the inhibition in vivo at 2 mg/kg stood at 42 ± 16% in experiment [3] (setting [4]) and 15 ± 13% in experiment [3] (setting [5]). Besides, in experiment [3], the IC10 was 200 nM.
For the compound `CCc1nc(-c2ccc3c(c2)CC[C@H]3NC(=O)c2ccnc(C)c2)no1` [Compound 387, (R)-N-(5-(5-ethyl-1,2,4-oxadiazol-3-yl)-2,3-dihydro-1H-inden-1-yl)-2-methylisonicotinamide], the “CDMF75 IC15” value in experiment [1] was determined as 500 nM. Moreover, the 50% inhibitory concentration (IC50) is 1300 nM in experiment [1], 2400 ± 80 nM in experiment [2] and 1600 nM in experiment [3]. Also, the inhibition in vivo at 6 mg/kg in experiment [3] (setting [4]) was 59 ± 24%; in experiment [3] (setting [5]) it was 50 ± 18%. Moreover, the IC10 in experiment [3] was 400 nM.
Turning to `CCc1cc(-c2ccc3c(c2)CC[C@H]3NC(=O)c2nnn(C)n2)no1` [Compound 253, (R)—N-(5-(5-ethylisoxazol-3-yl)-2,3-dihydro-1H-inden-1-yl)-2-methyl-2H-tetrazole-5-carboxamide], the “CDMF75 IC15” value in experiment [1] amounted to 300 nM. The 50% inhibitory concentration (IC50) was 800 nM in experiment [1], 1700 ± 80 nM in experiment [2] and 1300 nM in experiment [3]. The inhibition in vivo at 6 mg/kg turned out to be 56 ± 9% in experiment [3] (setting [4]) and 33 ± 7% in experiment [3] (setting [5]). Moreover, in experiment [3], the IC10 is 300 nM.
